Legend:
[1] = test system: hippocampal slices, CA3-CA1 synapse (fEPSP slope); assay: LTP in acute hippocampal slices from mice injected s.c.; type: in vivo, C57BL/6N mice; settings: mice injected with neurolide-1 10 mg/kg s.c. 24 h and 1 h before sacrifice plus MK-801 0.1 mg/kg s.c.; slope 25-30 min after HFS vs before; mean ± SEM, n = 6
Method: Juvenile C57BL/6N mice of both sexes (postnatal day 16–24; Taconic, Ejby, Denmark) were injected subcutaneously (s.c.) with 10 mg/kg of the neurolide-1 peptide solution (10 mg/mL) and again 23 h later with 10 mg/kg of the neurolide-1 peptide solution (10 mg/mL) and 0.1 mg/kg MK-801 solution (0.025 mg/mL). Mice receiving the injection with the MK-801 solution only or untreated mice served as control groups. The young mice were rapidly and humanely euthanized with a minimum of distress by decapitation at a time point corresponding to 24 h after first injection. Preceding anesthetic was omitted to preserve the tissue free of drug residues and brain slice functions as unaltered as possible when performing the physiological measurements. After decapitation, the brain was removed. […]
Measurements were made in oxygenated aCSF at room temperature (1.1 mL/min). […] The field potential in the stratum radiatum of the CA1 area of the hippocampus was recorded with an extracellular glass microelectrode (4–6 MΩ, filled with aCSF), positioned at least 500 μm away from the stimulation electrode. […]

hippocampal slices (LTP) = assay: LTP in acute hippocampal slices, peptide added directly to aCSF; design: species or system mice; settings: neurolide-1 alone, 1 µmol/L added to running artificial CSF during baseline before LTP induction
Method: Measurements were made in oxygenated aCSF at room temperature (1.1 mL/min). Schaeffer collaterals were stimulated with a bipolar concentric electrode (TM33CCNON; World Precision Instruments, Sarasota, FL). The field potential in the stratum radiatum of the CA1 area of the hippocampus was recorded with an extracellular glass microelectrode (4–6 MΩ, filled with aCSF), positioned at least 500 μm away from the stimulation electrode. The stimulus intensity was set 0.03 mA above the threshold. After a 30-min baseline was obtained with stimulation at 0.05 Hz, long-term potentiation (LTP) was induced by stimulating the Schaeffer collaterals at 100 Hz for 1 s four times at 20 s intervals. A new baseline was established over the following 30 min. Potentiation was estimated by comparing the rising slope of the field excitatory postsynaptic potential (fEPSP) before and 25–30 min after high-frequency stimulation.
Supplementary file prp20003-e00126-sd2.tif: Figure S1. Effect of neurolide-1 on LTP in acute hippocampal slices. Neurolide-1 at a concentration of 1 µmol/L was added directly to the running artificial CSF during baseline measurement before the induction of LTP.
Supplementary Figure S1. Effect of neurolide-1 on LTP in acute hippocampal slices. Neurolide-1 at a concentration of 1 µM was added directly to the running artificial CSF during baseline measurement before the induction of LTP.

male Wistar rats = assay: Y maze test (spontaneous alternation); type: in vivo, rat
Method: NMDA-mediated effects of Neurolide-1 on spatial working memory performance was assessed by recording spontaneous alternation behavior in a Y maze test performed as described previously (Wegener et al. [2011]), (See Data S1). Initially, adult male Wister rats (420–490 g, n = 6–12; Charles River) were injected s.c., three times at 28, 4, and 2 h before start of the Y maze test. One group received Neurolide-1, saline, and neurolide-1 in this order. Another group received saline, MK-801, and saline in this order. A third group received neurolide-1, MK-801, and neurolide-1 in this order. And control group received saline at all times. In a second setup we tested the effect of neurolide-1 in very young male Wistar rats (4-weeks old) which received a s.c., injection of neurolide-1 or saline 2 h prior to testing them in the Y-maze (n = 11–15). Terminally, rats were rapidly and humanely rendered unconscious by concussive stunning and euthanized by cervical dislocation.
The maze was made of gray polyvinyl chloride, with three identical arms (425 mm length × 225 mm height × 145 mm width) mounted symmetrically to an equilateral triangular center section. Each rat was placed at the end of one arm and allowed to explore the apparatus freely for 8 min. The sequence and number of all arm entries were recorded for each animal throughout the testing period. An alternation was defined as entries into all three arms on consecutive occasions. Therefore, the number of maximal alternation was the total number of arm entries minus 2, and the percentage of alternation was calculated as (actual alternations / maximal alternations) × 100. The total number of arms entered during the sessions was also determined (Yamaguchi et al, 2006). Data were eliminated in cases in which the number of total arm entries was less than 10 or when the rat escaped from the Y maze. After each trial, the Y maze was cleaned with 1% Virkon S (Pharmaxim, Helsingborg, Sweden).

[2] = in vivo intra-hippocampal treatment; ref van der Kooij et al. [2014]; cited from earlier work
Description: (§1) We recently investigated the functional role of the NL1 B insert using a peptide, termed neurolide-1, that encompasses the NL1-binding site for NX1, including the B insert.

NX-1β = settings: ref Gjorlund et al. [2012]; cited from earlier work
Description: as §1

hippocampal neurons = settings: NX-1β expression-dependent, in contrast to the peptide without the B insert; ref Gjorlund et al. [2012]; cited from earlier work
Description: as §1

[3] = 4-week-old male Wistar rats, single s.c. treatment 2 h before test, n = 11-15

Sequence: SEGNRWSNSTKGLFQRA [neurolide-1]
- increase of fEPSP slope after high-frequency stimulation (LTP) [1]: 57 ± 12%
- effect on LTP, direct treatment of hippocampal slices (hippocampal slices (LTP)): did not affect LTP
- alternation rate in 4-week-old rats (male Wistar rats; [3]): 76%
- total number of arms visited in 4-week-old rats (male Wistar rats; [3]): slightly decreased the total number of arms visited
- working memory performance (alternation rate), peptide alone (male Wistar rats; adult rats 420-490 g, neurolide-1 10 mg/kg s.c. 24 and 2 h before test, n = 6-12): did not affect performance
- total number of arm entries, combined treatment neurolide-1 + MK-801 (male Wistar rats; adult rats, neurolide-1 10 mg/kg s.c. twice plus MK-801 0.1 mg/kg, n = 6-12): significantly increased the total number of arms visited
- working memory (alternation rate) in MK-801-treated animals (male Wistar rats; adult rats, neurolide-1 10 mg/kg s.c. twice, MK-801 0.1 mg/kg 2 h before second neurolide-1 injection, n = 6-12): partially restored working memory
- total number of arm entries, single treatment (male Wistar rats; adult rats, peptide alone or MK-801 alone, n = 6-12): did not change
- sociability and aggression [2]: did not demonstrate such effects
- binding to NX-1β (NX-1β): bind NX-1β
- neurite outgrowth in hippocampal neurons (hippocampal neurons): induce neurite outgrowth

Source: paper PMC4448987, “A neuroligin-1-derived peptide stimulates phosphorylation of the NMDA receptor NR1 subunit and rescues MK-801-induced decrease in long-term potentiation and memory impairment” (Pharmacology Research & Perspectives, 2015)
